# Test results reported in US20100311729A1, “Substituted imidazopyridazines and pyrrolopyrimidines as lipid kinase inhibitors” (priority 2007, published 2010).
# Columns and labels:
# PI3K delta = molecular target: T1, PI3K delta (Homo sapiens, UniProt O00329); test: PI3 kinase assay (Kinase-Glo luminescence), PI3K delta; type: biochemical; details: Enzymatic Data; read-out: PI3K delta IC50 [umol]
# T1 construct: for the full-length p110-d subunit are generated and fused by overlapping PCR; His tag (C); made in house; host or cells: baculovirus; Tn5 (Trichoplusia ni) or TiniPro insect cells
# Outline: (§1)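 Recombinant PI3K constructs (alfa 10 nM, delta 10 nM, gamma 150 nM) with 1 μM ATP and 10 μg/mL phosphatidylinositol in Tris pH 7.5, MgCl2, NaCl, CHAPS, DTT; 60 min (alfa, delta) or 120 min (gamma) at room temperature. ATP depletion read by Kinase-Glo luminescence; IC50 from 4-parameter logistic fit over 8 concentrations.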
# PI3K gamma = molecular target: T2, PI3K gamma (Homo sapiens, UniProt P48736); test: PI3 kinase assay (Kinase-Glo luminescence), PI3K gamma; type: biochemical; details: Enzymatic Data; read-out: PI3K gamma IC50 [umol]
# T2 construct: PI3Kγ BV-950 p110g(D144aa)-C-Term His Tag; His tag (C); made in house; host or cells: construct from the Roger Williams lab (MRC LMB) in pVL1393; baculovirus; Tn5 (Trichoplusia ni) or TiniPro insect cells
# Outline: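 Kinase-Glo luminescence assay with 1 μM ATP and 10 μg/mL phosphatidylinositol (final), reaction started by ATP addition. IC50 from 4-parameter logistic fit of percent inhibition at 8 compound concentrations (usually 10 down to 0.003 […]).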
# PI3K beta = molecular target: T3, PI3K beta (Homo sapiens, UniProt P42338); test: PI3 kinase assay (Kinase-Glo luminescence), PI3K beta; type: biochemical; details: Enzymatic Data; read-out: PI3K beta IC50 [umol]
# T3 construct: for the full-length p110-b subunit are generated and fused by overlapping PCR; His tag (C); made in house; host or cells: baculovirus; Tn5 (Trichoplusia ni) or TiniPro insect cells
# Outline: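 PI3Kβ (25 nM, BV-949) with 10 μg/mL phosphatidylinositol in Tris pH 7.5/MgCl2/NaCl/CHAPS/DTT buffer; reaction started with 1 μM ATP, 60 min at room temperature. ATP depletion read by Kinase-Glo luminescence; 8-point dilutions, IC50 by four-parameter logistic fit.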
# PI3K alfa = molecular target: T4, PI3K alfa (Homo sapiens, UniProt P42336); test: PI3 kinase assay (Kinase-Glo luminescence), PI3K alfa; type: biochemical; details: Enzymatic Data; read-out: PI3K alfa IC50 [umol]
# T4 construct: for the p110-a subunit (with a deletion of the first 20 amino acids); His tag (C); made in house; host or cells: baculovirus; Tn5 (Trichoplusia ni) or TiniPro insect cells
# Outline: as §1
# T1 sequence (O00329 with tags, fused parts or gaps limits assumed): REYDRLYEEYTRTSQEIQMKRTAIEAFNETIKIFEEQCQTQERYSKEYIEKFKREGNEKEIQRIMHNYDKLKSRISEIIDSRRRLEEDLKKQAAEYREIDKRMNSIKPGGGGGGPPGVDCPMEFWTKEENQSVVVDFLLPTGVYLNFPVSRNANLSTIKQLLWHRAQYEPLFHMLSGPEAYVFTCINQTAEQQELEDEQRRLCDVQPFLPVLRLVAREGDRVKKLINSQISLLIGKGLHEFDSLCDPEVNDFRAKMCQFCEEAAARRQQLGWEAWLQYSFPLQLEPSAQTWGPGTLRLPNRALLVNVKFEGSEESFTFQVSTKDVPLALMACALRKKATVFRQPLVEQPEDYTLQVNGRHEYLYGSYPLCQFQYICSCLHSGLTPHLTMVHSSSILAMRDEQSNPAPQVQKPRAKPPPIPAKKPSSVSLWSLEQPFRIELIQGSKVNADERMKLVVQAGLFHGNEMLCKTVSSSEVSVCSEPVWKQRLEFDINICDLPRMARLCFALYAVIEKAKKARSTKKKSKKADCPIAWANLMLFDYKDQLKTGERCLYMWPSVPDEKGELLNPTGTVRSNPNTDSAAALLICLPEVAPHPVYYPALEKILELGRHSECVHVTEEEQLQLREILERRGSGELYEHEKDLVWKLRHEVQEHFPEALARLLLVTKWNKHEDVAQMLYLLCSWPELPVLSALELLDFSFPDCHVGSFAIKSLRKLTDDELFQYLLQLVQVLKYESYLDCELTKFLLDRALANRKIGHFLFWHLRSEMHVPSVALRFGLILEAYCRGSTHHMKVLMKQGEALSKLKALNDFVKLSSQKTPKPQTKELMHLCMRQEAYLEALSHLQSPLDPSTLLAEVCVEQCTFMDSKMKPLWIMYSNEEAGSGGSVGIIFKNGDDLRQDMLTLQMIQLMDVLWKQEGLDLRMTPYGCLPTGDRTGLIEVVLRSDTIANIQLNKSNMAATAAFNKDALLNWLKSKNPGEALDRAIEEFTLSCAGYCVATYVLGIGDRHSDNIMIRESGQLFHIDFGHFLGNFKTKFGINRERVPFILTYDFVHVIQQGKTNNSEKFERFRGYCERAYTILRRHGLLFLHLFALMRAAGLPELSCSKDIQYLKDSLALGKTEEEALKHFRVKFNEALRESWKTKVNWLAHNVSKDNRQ
# T4 sequence (P42336 with tags, fused parts or gaps limits assumed): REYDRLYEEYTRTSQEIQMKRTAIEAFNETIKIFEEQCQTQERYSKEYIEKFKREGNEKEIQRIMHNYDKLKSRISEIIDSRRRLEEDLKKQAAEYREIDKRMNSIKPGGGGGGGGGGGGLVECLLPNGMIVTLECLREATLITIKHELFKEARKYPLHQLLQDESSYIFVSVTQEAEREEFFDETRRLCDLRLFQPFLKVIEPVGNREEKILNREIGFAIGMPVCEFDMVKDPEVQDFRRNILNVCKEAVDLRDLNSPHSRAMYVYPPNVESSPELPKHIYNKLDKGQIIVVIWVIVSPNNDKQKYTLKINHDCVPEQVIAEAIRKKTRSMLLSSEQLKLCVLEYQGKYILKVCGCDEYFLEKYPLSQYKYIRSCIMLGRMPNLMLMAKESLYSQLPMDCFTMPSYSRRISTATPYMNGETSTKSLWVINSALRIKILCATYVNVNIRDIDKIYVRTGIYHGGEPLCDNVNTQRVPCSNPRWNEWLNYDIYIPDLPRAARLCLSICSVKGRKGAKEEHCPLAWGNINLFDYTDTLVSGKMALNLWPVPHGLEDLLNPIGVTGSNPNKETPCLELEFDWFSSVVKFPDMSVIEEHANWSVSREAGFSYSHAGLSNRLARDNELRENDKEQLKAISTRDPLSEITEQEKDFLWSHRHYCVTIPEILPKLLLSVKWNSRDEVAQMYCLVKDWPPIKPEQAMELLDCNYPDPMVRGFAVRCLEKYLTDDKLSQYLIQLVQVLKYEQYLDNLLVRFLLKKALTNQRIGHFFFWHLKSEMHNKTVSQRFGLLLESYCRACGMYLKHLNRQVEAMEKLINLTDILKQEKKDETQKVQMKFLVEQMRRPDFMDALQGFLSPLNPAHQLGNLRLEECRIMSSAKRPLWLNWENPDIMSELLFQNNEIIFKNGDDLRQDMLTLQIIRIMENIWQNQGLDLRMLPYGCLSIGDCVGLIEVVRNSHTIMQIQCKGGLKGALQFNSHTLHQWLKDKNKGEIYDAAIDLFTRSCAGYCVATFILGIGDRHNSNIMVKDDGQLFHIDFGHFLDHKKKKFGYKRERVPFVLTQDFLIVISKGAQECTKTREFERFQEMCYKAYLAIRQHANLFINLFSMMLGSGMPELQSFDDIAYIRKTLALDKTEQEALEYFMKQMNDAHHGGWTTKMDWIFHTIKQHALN
# T3 sequence (P42338 with tags, fused parts or gaps limits assumed): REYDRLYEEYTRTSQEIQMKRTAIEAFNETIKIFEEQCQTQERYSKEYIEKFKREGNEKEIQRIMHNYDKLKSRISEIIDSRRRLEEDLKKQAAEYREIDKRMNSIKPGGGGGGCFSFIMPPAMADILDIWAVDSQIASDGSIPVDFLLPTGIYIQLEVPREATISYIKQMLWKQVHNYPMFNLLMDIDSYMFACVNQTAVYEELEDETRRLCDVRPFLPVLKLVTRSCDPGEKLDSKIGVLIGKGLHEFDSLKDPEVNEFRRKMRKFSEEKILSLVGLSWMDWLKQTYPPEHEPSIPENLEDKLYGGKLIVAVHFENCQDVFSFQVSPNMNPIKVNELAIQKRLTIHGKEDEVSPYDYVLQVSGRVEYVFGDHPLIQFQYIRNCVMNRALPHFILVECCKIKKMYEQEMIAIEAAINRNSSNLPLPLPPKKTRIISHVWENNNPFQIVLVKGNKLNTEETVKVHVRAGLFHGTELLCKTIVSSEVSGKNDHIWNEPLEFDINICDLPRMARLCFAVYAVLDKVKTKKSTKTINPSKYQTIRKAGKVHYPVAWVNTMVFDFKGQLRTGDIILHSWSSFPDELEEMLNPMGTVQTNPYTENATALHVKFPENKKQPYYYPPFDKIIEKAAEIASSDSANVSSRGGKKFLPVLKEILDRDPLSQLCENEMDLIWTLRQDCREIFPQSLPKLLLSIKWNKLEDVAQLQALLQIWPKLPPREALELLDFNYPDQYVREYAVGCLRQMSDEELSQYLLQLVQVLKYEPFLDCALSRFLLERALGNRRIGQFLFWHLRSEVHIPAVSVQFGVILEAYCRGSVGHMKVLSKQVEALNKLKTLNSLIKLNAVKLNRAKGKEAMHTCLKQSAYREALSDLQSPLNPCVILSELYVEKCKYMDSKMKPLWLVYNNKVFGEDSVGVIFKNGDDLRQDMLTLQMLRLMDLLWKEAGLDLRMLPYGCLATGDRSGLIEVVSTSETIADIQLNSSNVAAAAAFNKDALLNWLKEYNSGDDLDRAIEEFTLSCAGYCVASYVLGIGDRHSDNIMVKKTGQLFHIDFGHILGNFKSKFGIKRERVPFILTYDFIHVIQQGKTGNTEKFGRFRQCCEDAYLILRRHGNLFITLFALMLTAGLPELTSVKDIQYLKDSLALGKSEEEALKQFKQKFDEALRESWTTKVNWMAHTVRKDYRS
# T2 sequence (P48736 144-1102 limits assumed): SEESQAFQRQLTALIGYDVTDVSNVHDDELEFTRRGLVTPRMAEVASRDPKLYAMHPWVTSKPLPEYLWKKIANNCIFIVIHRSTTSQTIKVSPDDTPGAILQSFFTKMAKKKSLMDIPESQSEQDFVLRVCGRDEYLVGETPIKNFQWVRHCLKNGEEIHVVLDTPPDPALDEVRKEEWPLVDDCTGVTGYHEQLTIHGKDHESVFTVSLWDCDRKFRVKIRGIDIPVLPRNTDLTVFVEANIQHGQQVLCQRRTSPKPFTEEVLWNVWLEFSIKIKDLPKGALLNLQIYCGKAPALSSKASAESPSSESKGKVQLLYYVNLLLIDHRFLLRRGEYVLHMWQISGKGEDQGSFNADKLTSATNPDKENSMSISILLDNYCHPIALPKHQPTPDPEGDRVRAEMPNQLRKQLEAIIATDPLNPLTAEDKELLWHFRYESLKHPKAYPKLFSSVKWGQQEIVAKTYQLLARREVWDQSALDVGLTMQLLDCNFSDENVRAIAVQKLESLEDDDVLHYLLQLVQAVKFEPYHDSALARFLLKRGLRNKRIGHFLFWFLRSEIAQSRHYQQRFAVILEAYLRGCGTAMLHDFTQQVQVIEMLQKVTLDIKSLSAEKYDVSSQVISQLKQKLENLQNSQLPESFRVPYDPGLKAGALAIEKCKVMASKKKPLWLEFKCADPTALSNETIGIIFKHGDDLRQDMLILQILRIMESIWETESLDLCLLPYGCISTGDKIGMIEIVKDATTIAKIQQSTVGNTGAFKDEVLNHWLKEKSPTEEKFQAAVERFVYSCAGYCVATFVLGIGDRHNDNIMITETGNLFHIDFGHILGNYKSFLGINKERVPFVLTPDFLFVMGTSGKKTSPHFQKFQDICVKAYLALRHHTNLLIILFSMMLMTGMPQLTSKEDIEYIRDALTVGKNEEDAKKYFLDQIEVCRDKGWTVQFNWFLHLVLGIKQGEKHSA
Compound,melting point,IC50 (PI3K delta),IC50 (PI3K gamma),IC50 (PI3K beta),IC50 (PI3K alfa)
"COc1ccc(-c2cnn3ccc(-c4ccc(OCCCNC(=O)OC(C)(C)C)c(OC)c4)nc23)cc1OC [Example 25, (3-{4-[3-(3,4-Dimethoxy-phenyl)-pyrazolo[1,5-a]pyrimidin-5-yl]-2-methoxy-phenoxy}-propyl)-carbamic acid tert-butyl ester]",131 to 133 °C,,,,
"Nc1ncc(-c2cnc3ccc(-c4ccc(OCC5(N)COC5)cc4)nn23)cc1C(F)(F)F [Example 147, 5-{6-[4-(3-Amino-oxetan-3-ylmethoxy)-phenyl]-imidazo[1,2-b]pyridazin-3-yl}-3-trifluoromethyl-pyridin-2-yl amine]",198 to 200 °C,227 nM,1310 nM,496 nM,61 nM
"COC(=O)NC1(COc2ccc(-c3ccc4ncc(-c5cnc(N)c(C(F)(F)F)c5)n4n3)cc2)COC1 [Example 148, (3-{4-[3-(6-Amino-5-trifluoromethyl-pyridin-3-yl)-imidazo[1,2-b]pyridazin-6-yl]-phenoxymethyl}-oxetan-3-yl)-carbamic acid methyl ester]",220 to 222 °C,369 nM,810 nM,3290 nM,96 nM
"COc1cc(-c2ccc3ncc(-c4cnc(N)c(C(F)(F)F)c4)n3n2)ccc1OCCCN1CCNC1=O [Example 164, 1-(3-{4-[3-(6-Amino-5-trifluoro-methyl-pyridin-3-yl)-imidazo [1,2-b]pyridazin-6-yl]-2-methoxy-phenoxy}-propyl)-imidazolidin-2-one]",,26 nM,453 nM,154 nM,6 nM
"Nc1ncc(-c2cnc3ccc(-c4ccc(OC5CCNCC5)cc4)nn23)cc1C(F)(F)F [Example 165, 5-{6-[4-(Piperidin-4-yloxy)-phenyl]-imidazo [1,2-b]pyridazin-3-yl}-3-trifluoro-methyl-pyridin-2-ylamine]",,207 nM,371 nM,355 nM,131 nM
"COc1cc(-c2ccc3ncc(-c4cnc(N)c(C(F)(F)F)c4)n3n2)ccc1OC1CCNCC1 [Example 166, 5-{6-(3-Methoxy-4-(piperidin-4-yloxy)-phenyl]-imidazo [1,2-b]pyridazin-3-yl}-3-trifluoro-methyl-pyridin-2-ylamine]",,41 nM,556 nM,204 nM,50 nM
CC(C)C(=O)NCC1(COc2ccc(-c3ccc4ncc(-c5cnc(N)c(C(F)(F)F)c5)n4n3)cc2)COC1 [Example 167],205 to 207 °C,231 nM,2040 nM,1480 nM,35 nM
"Nc1ncc(-c2ccc3ncc(-c4ccc(CO)cc4)n3n2)cc1C(F)(F)F [Example 168, {4-[6-(6-Amino-5-trifluoromethyl-pyridin-3-yl)-imidazo[1,2-b]pyridazin-3-yl]-phenyl}-methanol]",290 to 292 °C,14 nM,585 nM,25 nM,11 nM
"NCC1(COc2ccc(-c3ccc4ncc(-c5cnc(N)c(C(F)(F)F)c5)n4n3)cc2)COC1 [Example 169, 5-{6-[4-(3-Aminomethyl-oxetan-3-ylmethoxy)-phenyl]-imidazo[1,2-b]pyridazin-3-yl}-3-trifluoromethyl-pyridin-2-ylamine]",,53 nM,324 nM,82 nM,45 nM
"Nc1ncc(-c2ccc3ncc(-c4ccc(OCCCN5CCOCC5)cc4)n3n2)cc1C(F)(F)F [Example 171, 5-{3-[4-(3-Morpholin-4-yl-propoxy)-phenyl]-imidazo [1,2-b]pyridazin-6-yl}-3-trifluoro-methyl-pyridin-2-ylamine]",,61 nM,480 nM,185 nM,49 nM
"Nc1ncc(-c2cnc3ccc(-c4ccc(OCC5(CNC(=O)C6CC6)COC5)cc4)nn23)cc1C(F)(F)F [Example 172, Cyclopropanecarboxylic acid (3-{4-[3-(6-amino-5-trifluoromethyl-pyridin-3-yl)-imidazo[1,2-b]pyridazin-6-yl]-phenoxymethyl}-oxetan-3-ylmethyl)-amide]",223 to 225 °C,139 nM,461 nM,1050 nM,48 nM
"COC(=O)NCC1(COc2ccc(-c3ccc4ncc(-c5cnc(N)c(C(F)(F)F)c5)n4n3)cc2)COC1 [Example 173, (3-{4-[3-(6-Amino-5-trifluoromethyl-pyridin-3-yl)-imidazo[1,2-b]Pyridazin-6-yl]-phenoxymethyl}-oxetan-3-ylmethyl)-carbamic acid methyl ester]",179 to 181 °C,113 nM,516 nM,1020 nM,39 nM
"Nc1ncc(-c2ccc3ncc(-c4ccc(OCCCc5ccncc5)cc4)n3n2)cc1C(F)(F)F [Example 174, 5-{3-[4-(3-Pyridin-4-yl-propoxy)-phenyl]-imidazo [1,2-b]pyridazin-6-yl}-3-trifluoro-methyl-pyridin-2-ylamine]",,224 nM,2070 nM,2060 nM,106 nM
"CC(C)(C)OC(=O)NCCCOc1ccc(-c2ccc3ncc(-c4cnc(N)c(C(F)(F)F)c4)n3n2)cn1 [Example 175, (3-{5-[3-(G-Amino-5-trifluoro-methyl-pyridin-3-yl)-imidazo [1,2-b]pyridazin-6-yl]-pyridin-2-yloxy}-propyl)-carbamic acid tert-butyl ester]",,421 nM,> 9100 nM,7100 nM,119 nM

# Second part, the compound after the results:
melting point,IC50 (PI3K delta),IC50 (PI3K gamma),IC50 (PI3K beta),IC50 (PI3K alfa),Compound
,41 nM,2440 nM,81 nM,82 nM,"NCCCOc1ccc(-c2ccc3ncc(-c4cnc(N)c(C(F)(F)F)c4)n3n2)cn1 [Example 176, 5-{6-[6-(3-Amino-propoxy)-pyridin-3-yl]-imidazo-[1,2b]pyridazin-3-yl}-3-trifluoro-methyl-pyridin-2-ylamine]"
,92 nM,> 9100 nM,331 nM,11 nM,"Nc1ncc(-c2cnc3ccc(-c4ccc(OCCCNC(=O)C5CC5)nc4)nn23)cc1C(F)(F)F [Example 177, Cyclo-propane-carboxylic acid (3-{5-[3-(6-amino-5-trifluoro-methyl-pyridin-3-yl)-imidazo [1,2-b]pyridazin-6-yl]-pyridin-2-yloxy}-propyl)-amide]"
,495 nM,> 9100 nM,6190 nM,793 nM,"c1cc2cc(-c3cnc4ccc(-c5ccc6c(c5)OCO6)nn34)cnc2[nH]1 [Example 178, 6-Benzo [1,3] dioxol-5-yl-3-(1H-pyrrolo [2,3-b]pyridin-5-yl)-imidazo [1,2-b] pyridazine]"
,448 nM,2920 nM,> 9100 nM,3900 nM,"COc1ccccc1-c1ccn2ncc(-c3ccc(C(N)=O)cc3)c2n1 [Example 179, 4-[5-(2-Methoxy-phenyl)-pyrazolo[1,5-a]pyrimidin-3-yl]-benzamide]"
209 to 211 °C,16 nM,1080 nM,180 nM,12 nM,Nc1ncc(-c2ccc3ncc(-c4ccc(CN5CCC(C(=O)N6CCCC6)CC5)cc4)n3n2)cc1C(F)(F)F [Example 181]
249 to 252 °C,,,,,"Nc1ncc(-c2ccc3ncc(-c4ccc(CN5CCC(C(=O)N6CCCCCC6)CC5)cc4)n3n2)cc1C(F)(F)F [Example 182, (1-{4-[6-(6-Amino-5-trifluoromethyl-pyridin-3-yl)-imidazo[1,2-b]pyridazin-3-yl]-benzyl}-piperidin-4-yl)-azepan-1-yl-methanone]"
263 to 266 °C,,,,,"Nc1ncc(-c2ccc3ncc(-c4ccc(CN5CCC(C(=O)N6CCCCC6)CC5)cc4)n3n2)cc1C(F)(F)F [Example 183, (1-{4-[6-(6-Amino-5-trifluoromethyl-pyridin-3-yl)-imidazo[1,2-b]pyridazin-3-yl]-benzyl}-piperidin-4-yl)-piperidin-1-yl-methanone]"
